Assay results as given in patent US20220153783A1, “MITOCHONDRIA-TARGETING COMPOUND AND COMPOSITION COMPRISING SAME FOR TREATING OR PREVENTING AGING-RELATED DISEASES” (FUSION BIOTECHNOLOGY CO., LTD., priority 2019, published 2022).
SH = thiol (–SH) group at the N-terminus

Legend:
[1] = tested on: choroidal neovascularization; assay: Laser-induced CNV model, fluorescein angiography; assay type: in vivo, mice; details: two weeks after laser, compared to Eylea control group
Description: Specifically, the mice were anesthetized by intraperitoneal injection of ketamine hydrochloride and xylazine hydrochloride. By using a diode laser with a wavelength of 810 nm, eight photocoagulation spots, each having the size of 75 μm, the intensity of 250 mW, and the time of 50 ms, were made in concentric circles among the main retinal vessels around the optic nerve. The rupture of the Bruck's membrane was confirmed by identifying that cavitation bubbles had been formed in the choroid. Immediately after laser irradiation, the experimental groups treated with 10 μM, 50 μM, and 100 μM of SP-101, and phosphate buffered saline and Eylea, which were used as control groups, were injected into the vitreous cavity. Two weeks after laser irradiation, fluorescein angiography was performed thereon using a confocal scanning laser fundus camera. After fluorescein-dextran was rapidly injected intravenously, images thereof were taken at the beginning (2 min) and late (10 min).

senescent cells [2] = assay: SA-b-galactosidase staining of senescent cells; assay type: cell-based; details: 30 μM SP-101 versus untreated control, optical microscope
Method: Specifically, SA-b-galactosidase staining was used. Cells that were not treated with anything were used as a control, and those treated with 30 μM of SP-101 were used as an experimental group. SA-gal staining was performed using a kit (Biovision, K320-250) according to the manufacturer's instructions. Senescent cells were identified as blue-stained cells under an optical microscope.

[3] = Macromolecular formation of SP-101 by ROS (TEM/SEM); assay type: physicochemical; details: 1 mM and 10 mM in water, stirred 24 hours
Method: Specifically, 1 mM SP-101 and 10 mM SP-101 were each dissolved in water and stirred for 24 hours. A drop of an aqueous solution of SP-101 was placed on a formvar/carbon-coated copper grid and evaporated under atmospheric conditions. The sample was stained with a 2 wt % uranyl acetate solution, evaporated for 1 minute, and then the excess solution was removed therefrom by using a filter paper.

senescent cells [4] = assay: Cytotoxicity of SP-101, MTT cell viability; assay type: cell-based; details: 5 μM to 30 μM SP-101, 24 hours
Method: (§1) Specifically, the cell viability of IMR90 and senescent cells against SP-101 was evaluated by identifying the reduction of 3-(4,5-dimethylthiazol-2-yl)-2,5-diphenyltetrazolium bromide (MTT) to insoluble formazan. Cells were seeded at a density of 5×10^3 cells per well in a 96-well plate and cultured overnight, followed by treatment with different concentrations of SP-101 in DMEM medium containing 10% FBS and cultured for 24 hours. Then, the cells were cultured with MTT, and then the crystallized formazan was quantified by measuring the absorbance thereof at 595 nm by using an ELISA plate reader. Results were expressed as percent viability=[(A550 (treated cells)−background value)/(A550 (untreated cells)−background value)]×100.

senescent cells [5] = assay: Cytotoxicity of SH-KLAKLAKRGD, MTT cell viability; assay type: cell-based; details: different concentrations, 24 hours
Method: as §1, with “SH-KLAKLAKRGD” for “SP-101”, “MTT” for “3-(4,5-dimethylthiazol-2-yl)-2,5-diphenyltetrazolium bromide (MTT)”

[6] = Self-assembly of SH-KLAKLAKRGD (TEM, size); assay type: physicochemical; details: dissolved in water (1 mM and 10 mM), stirred 24 hours
Method: SH-KLAKLAKRGD (1 mM and 10 mM) was dissolved in water and stirred for 24 hours. A drop of SH-KLAKLAKRGD aqueous solution was placed on a formvar/carbon coated copper grid and allowed to evaporate at ambient conditions. The sample was stained with 2 wt % uranyl acetate solution and evaporated for 1 minute, and the excess solution was removed with filter paper. The specimen was observed using a JEM-1400 TEM operating at 120 kV.

Substance	volume of choroidal neovascularization ([1]; 10 μM SP-101 injected into the vitreous cavity)	volume of choroidal neovascularization ([1]; 100 μM SP-101 injected into the vitreous cavity)	reduction of senescent cells (blue-stained cells) (senescent cells [2])	macromolecule formation by oxidation [3]	killing of senescent cells versus normal cells IMR90 (senescent cells [4])	cell viability in senescent cells versus IMR90 normal cell (senescent cells [5])	size of the polymerized SH-KLAKLAKRGD [6]	macromolecule formation (TEM image) ([6]; TEM)
(3-((3-(3,5-dimercaptobenzamido)propyl)dimethylammonium)propyl)triphenylphosphonium [SP-101]	decreased by about twice compared to the Eylea control group	decreased by about twice compared to the Eylea control group	senescent cells were reduced	oxidized to form a macromolecule	more senescent cells were killed than normal cells	–	–	–
SH-KLAKLAKRGD: mitochondria-targeting compound prepared by solid phase peptide synthesis; NH2-KLAKLAKRGD reacted with disulfide 4, structure in FIG. 10 ({SH}-KLAKLAKRGD-NH2; also: N-terminal thiol group from reaction with disulfide 4)	–	–	–	–	–	cell viability in senescent cells was lower than that in IMR90	350±100 nm	showed a macromolecule in which peptides were polymerized
